# Measured values reported in ChEMBL document CHEMBL4371085, “Novel M4 positive allosteric modulators derived from questioning the role and impact of a presumed intramolecular hydrogen-bonding motif in β-amino carboxamide-harboring ligands” (Bioorg Med Chem Lett, 2019).
# What was measured:
# [1] = target: T1, Muscarinic acetylcholine receptor M4 (Homo sapiens) (UniProt P08173); assay: Positive allosteric modulation of Gqi5-fused human M4 AChR assessed as increase in acetylcholine-induced calcium mobilization relative to acetylcholine alone; type: functional
# T1 sequence (whole entry): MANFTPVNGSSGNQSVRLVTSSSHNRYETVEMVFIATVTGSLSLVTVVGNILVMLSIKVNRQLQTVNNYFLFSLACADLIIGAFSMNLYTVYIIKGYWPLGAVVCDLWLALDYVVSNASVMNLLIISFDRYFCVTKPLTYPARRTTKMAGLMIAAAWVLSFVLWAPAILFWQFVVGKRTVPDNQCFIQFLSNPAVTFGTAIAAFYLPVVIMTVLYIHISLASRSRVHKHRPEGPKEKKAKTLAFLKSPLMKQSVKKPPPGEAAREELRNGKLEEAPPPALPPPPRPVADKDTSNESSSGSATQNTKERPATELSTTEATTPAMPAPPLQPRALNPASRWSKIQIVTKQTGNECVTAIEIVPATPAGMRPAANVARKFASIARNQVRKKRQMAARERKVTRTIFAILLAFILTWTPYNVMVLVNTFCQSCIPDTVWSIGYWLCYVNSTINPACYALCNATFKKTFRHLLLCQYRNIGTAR
# [2] = Fraction unbound in rat plasma; type: ADME, cell-free
# [3] = tested on: Cytochrome P450; assay: Inhibition of CYP450 (unknown origin); type: ADME, protein assay; settings: human
# [4] = target: T2, Muscarinic acetylcholine receptor M4 (Homo sapiens, UniProt P08173); assay: Positive allosteric modulation of Gqi5-fused human M4 AChR assessed as increase in acetylcholine-induced calcium mobilization; type: functional
# T2 sequence (P08173 whole entry): T1 sequence (whole entry)
# [5] = Brain to plasma partition coefficient, Kp of the compound in rat; type: ADME, cell-free
# [6] = target: T3, Cytochrome P450 1A2 (Homo sapiens, UniProt P05177); assay: Inhibition of CYP1A2 (unknown origin); type: ADME
# T3 sequence (P05177 whole entry): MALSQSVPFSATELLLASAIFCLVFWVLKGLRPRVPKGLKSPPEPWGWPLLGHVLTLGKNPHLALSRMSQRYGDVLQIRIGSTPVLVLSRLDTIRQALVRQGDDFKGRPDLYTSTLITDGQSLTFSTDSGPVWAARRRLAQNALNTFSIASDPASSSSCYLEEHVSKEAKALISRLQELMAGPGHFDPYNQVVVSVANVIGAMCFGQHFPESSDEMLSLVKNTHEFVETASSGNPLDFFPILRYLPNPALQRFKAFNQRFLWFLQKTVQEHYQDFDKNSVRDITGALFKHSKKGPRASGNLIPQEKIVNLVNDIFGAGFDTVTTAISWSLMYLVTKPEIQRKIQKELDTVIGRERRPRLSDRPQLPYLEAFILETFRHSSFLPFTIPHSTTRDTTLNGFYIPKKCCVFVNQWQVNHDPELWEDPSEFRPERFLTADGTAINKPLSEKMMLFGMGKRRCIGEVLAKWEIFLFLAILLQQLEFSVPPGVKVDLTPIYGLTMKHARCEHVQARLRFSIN
# [7] = target: Cytochrome P450 2C9 (Homo sapiens, UniProt P11712); assay: Inhibition of CYP2C9 (unknown origin); type: ADME
# Sequence of Cytochrome P450 2C9 (P11712 whole entry): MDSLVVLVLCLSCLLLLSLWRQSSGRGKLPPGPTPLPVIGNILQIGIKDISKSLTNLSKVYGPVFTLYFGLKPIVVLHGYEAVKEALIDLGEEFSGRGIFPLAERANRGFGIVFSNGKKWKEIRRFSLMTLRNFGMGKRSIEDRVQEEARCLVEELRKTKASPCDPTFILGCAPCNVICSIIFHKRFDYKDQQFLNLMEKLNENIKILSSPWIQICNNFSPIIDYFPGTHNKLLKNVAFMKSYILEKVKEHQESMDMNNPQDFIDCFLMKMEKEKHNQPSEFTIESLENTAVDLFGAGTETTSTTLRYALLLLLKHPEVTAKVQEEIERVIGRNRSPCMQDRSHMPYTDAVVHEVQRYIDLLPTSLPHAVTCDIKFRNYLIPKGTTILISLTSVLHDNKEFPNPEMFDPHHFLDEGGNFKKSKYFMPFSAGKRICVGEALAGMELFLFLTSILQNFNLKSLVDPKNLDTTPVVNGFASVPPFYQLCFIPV
# [8] = target: P-gp (ABCB1) (Homo sapiens, UniProt P08183); assay: Substrate activity at human P-gp assessed as efflux ratio; type: ADME; settings: not told
# Sequence of P-gp (ABCB1) (P08183 whole entry): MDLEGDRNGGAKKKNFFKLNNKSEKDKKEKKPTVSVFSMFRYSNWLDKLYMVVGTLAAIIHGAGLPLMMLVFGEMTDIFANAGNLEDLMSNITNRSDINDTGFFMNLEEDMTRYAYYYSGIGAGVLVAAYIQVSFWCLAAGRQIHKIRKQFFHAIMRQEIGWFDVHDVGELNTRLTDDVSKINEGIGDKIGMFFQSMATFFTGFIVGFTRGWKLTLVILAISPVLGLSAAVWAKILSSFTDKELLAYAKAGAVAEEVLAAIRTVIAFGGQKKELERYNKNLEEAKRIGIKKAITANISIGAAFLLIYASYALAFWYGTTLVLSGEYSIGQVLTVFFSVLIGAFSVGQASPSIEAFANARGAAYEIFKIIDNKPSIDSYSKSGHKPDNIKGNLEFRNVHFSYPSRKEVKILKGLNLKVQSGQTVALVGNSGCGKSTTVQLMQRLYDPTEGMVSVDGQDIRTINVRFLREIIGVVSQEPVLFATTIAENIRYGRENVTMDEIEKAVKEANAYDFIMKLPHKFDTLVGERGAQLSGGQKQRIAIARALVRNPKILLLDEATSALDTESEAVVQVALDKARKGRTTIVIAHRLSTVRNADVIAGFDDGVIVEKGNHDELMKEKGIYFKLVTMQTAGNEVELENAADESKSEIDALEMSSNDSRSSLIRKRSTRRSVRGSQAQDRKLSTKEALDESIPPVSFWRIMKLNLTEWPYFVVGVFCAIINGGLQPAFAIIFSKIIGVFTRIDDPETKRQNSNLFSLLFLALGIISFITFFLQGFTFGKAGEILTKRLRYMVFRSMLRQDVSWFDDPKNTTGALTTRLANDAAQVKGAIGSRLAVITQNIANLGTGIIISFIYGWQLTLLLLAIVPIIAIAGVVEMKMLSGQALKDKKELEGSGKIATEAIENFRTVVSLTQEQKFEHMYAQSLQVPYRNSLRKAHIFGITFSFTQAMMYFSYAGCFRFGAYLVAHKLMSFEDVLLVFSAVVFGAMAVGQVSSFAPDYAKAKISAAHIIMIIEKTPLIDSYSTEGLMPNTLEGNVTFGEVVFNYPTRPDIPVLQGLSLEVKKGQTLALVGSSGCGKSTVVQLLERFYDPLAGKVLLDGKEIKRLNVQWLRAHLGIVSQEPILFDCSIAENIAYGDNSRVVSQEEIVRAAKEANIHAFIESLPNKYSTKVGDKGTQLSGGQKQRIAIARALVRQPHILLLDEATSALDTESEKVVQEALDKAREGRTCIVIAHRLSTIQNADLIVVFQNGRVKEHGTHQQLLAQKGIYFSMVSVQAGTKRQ
SMILES,Emax [1] [%],fraction unbound [2],inhibition (INH) [3],EC50 [4] [µM],other results
CCc1c(C(=O)NCc2ccc(OC)c(F)c2)sc2nnc(C)c(C)c12,73,< 0.005,Active,2.2,–
Cc1cc(C)c2c(n1)sc1c(NCC3CC3)n[nH]c12,67,–,–,2,–
Cc1cc(C)c2c(n1)sc1c(NCC3CCCC3)n[nH]c12,65,–,–,3.8,–
COc1ccc(CNC(=O)c2sc3nc(C)cc(C)c3c2C)cc1,49,< 0.005,Active,2.7,–
COc1ccc(CNc2nn(C)c3c2sc2nnc(C)c(C)c23)cc1,79,–,–,0.04,Kp [5]: 0.25; Fu [2]: 0.02; INH [3]: > 30 µM
COc1ccc(CNC(=O)c2cc3c(C)c(C)nnc3s2)cc1F,66,< 0.005,Active,1.5,–
Cc1cc(C)c2c(C)c(C(=O)NCc3ccc4c(c3)OCCO4)sc2n1,56,< 0.005,Active,2.1,–
Cc1nc2sc3c(NCc4ccc(F)cc4)nn(C)c3c2c(C)c1Cl,56,–,–,> 10,–
Cc1cc(C)c2c(C)c(C(=O)NCc3ccc4c(c3)CCO4)sc2n1,50,< 0.005,Active,5.9,–
COc1ccc(CNC(=O)c2cc3c(C)cc(C)nc3s2)cc1,53,< 0.005,Active,5.1,–
Cc1cc(C)c2c(C)c(C(=O)NCc3ccc(S(C)(=O)=O)cc3)sc2n1,58,< 0.005,Active,6.4,–
Cc1cc(C)c2c(n1)sc1c(NCc3ccccc3)n[nH]c12,66,–,–,1,–
Cc1nnc2sc3c(NCC4CC4)nn(C)c3c2c1C,84,–,–,0.62,–
COc1ccc(CNC(=O)c2sc3nnc(C)c(C)c3c2N)cc1F,75,–,–,–,–
CSc1ccc(CNC(=O)c2sc3nc(C)cc(C)c3c2C)cc1,45,< 0.005,Active,1.5,–
Cc1nnc2sc3c(NCc4ccco4)nn(C)c3c2c1C,91,–,–,0.69,–

SMILES,Emax [1] [%],fraction unbound [2],inhibition (INH) [3],EC50 [4] [µM],other results
COc1ccc(CNC(=O)c2sc3nnc(C)c(C)c3c2C2CC2)cc1F,35,< 0.005,Active,5.6,–
CCc1c(C(=O)NCc2ccc(S(C)(=O)=O)cc2)sc2nc(C)cc(C)c12,57,< 0.005,Active,2.7,–
Cc1nc2sc3c(NCC4CC4)nn(C)c3c2c(C)c1Cl,67,–,–,0.23,IC50 [6]: < 0.1 µM; Fu [2]: < 0.001; IC50 [7]: 1 µM
Cc1cc(C)c2c(n1)sc1c(NCc3ccco3)n[nH]c12,76,–,–,1.2,–
COc1ccc(CNC(=O)c2sc3nnc(C)c(C)c3c2C)cc1F,56,< 0.005,Active,2.1,–
Cc1nnc2sc3c(NCC4CCCO4)nn(C)c3c2c1C (stereo unspecified),102,–,–,0.18,–
Cc1nc2sc3c(NCc4ccco4)nn(C)c3c2c(C)c1Cl,59,–,–,0.12,IC50 [6]: < 0.1 µM; Fu [2]: < 0.001; IC50 [7]: 1 µM
Cc1nnc2sc(C(=O)NC3COC3)c(C3CC3)c2c1C,38,< 0.005,Active,> 10,–
COc1ccc(CNc2nn(C)c3c2sc2nc(C)c(Cl)c(C)c23)cc1,51,–,–,> 10,–
Cc1nnc2sc3c(NCc4ccc5c(c4)OCCO5)nn(C)c3c2c1C,91,–,–,0.06,–
Cc1cc(C)c2c(C)c(C(=O)NCc3ccc(OC(F)(F)F)cc3)sc2n1,29,< 0.005,Active,> 10,–
Cc1cc(C)c2c(n1)sc1c(NCc3ccc(F)cc3)n[nH]c12,62,–,–,1.1,–
Cc1nc2sc3c(NCc4ccccc4)nn(C)c3c2c(C)c1Cl,39,–,–,> 10,–
COc1ccc(CNc2n[nH]c3c2sc2nc(C)cc(C)c23)cc1,67,–,–,2.2,Fu [2]: < 0.002; INH [3]: < 5 µM
Cc1nnc2sc3c(NCc4ccc(S(C)(=O)=O)c(F)c4)nn(C)c3c2c1C,58,–,–,0.16,Fu [2]: 0.05; INH [3]: > 30 µM; efflux ratio [8]: > 10
